From patent US20240425523A1, “Compounds for the Degradation of EGFR Kinase” (Beigene Switzerland GMBH, priority 2023, published 2024)

Experiments:
Type in all cases: cell-based
[1] = target: T1, p-EGFR L858R (BaF3-L858R cells) (Homo sapiens, UniProt P00533, L858R); assay: Cell p-EGFR inhibition assay, HTRF, BaF3-L858R cells; settings: 16 h treatment; for Imax (%): maximum percentage of pEGFR inhibition; for IC50: pEGFR inhibition
T1 construct: host or cells: BaF3
Procedure: BaF3-L858R (abbv. L858R) cell were purchased from Kangyuan Bochuang Biotechnology (Beijing) Co., Ltd.
(§1) H1975-#23 and BaF3-L858R cells are treated with compounds diluted in 0.1% DMSO cell culture medium on day 2, incubate for 16 h, 37° C., 5% CO2. the final concentration of compounds in all assay is start with 10 uM, 5-fold dilution, total 8 doses were included.
(§2) After 16 h treatment, for H1975-#23 cells, add 50 ul HTRF 1× lysis buffer to each well; for BaF3-L858R cells, add 20 μl 4× lysis buffer to each well; seal the plate and incubate 1 hour at room temperature on a plate shaker; Once the cells are lysed, 16 μL of cell lysate are transferred to a PE 384-well HTRF detection plate; 4 μL of pre-mixed HTRF antibodies are added to each well; Cover the plate with a plate sealer, spin 1000 rpm for 1 min, Incubate overnight at room temperature; Read on BMG PheraStar with HTRF protocol (337 nm-665 nm-620 nm).
(§3) High control=Cell group with added DMSO and without compound, indicating microplate readings without p-EGFR inhibited.
(§4) Imax is the maximum percentage of inhibition.
(§5) The IC50 value of a compound can be obtained by fitting the following equation.
(§6) Wherein, X and Y are known values, and IC50, Hillslope, Top and Bottom are the parameters obtained by fitting with software. […] The experimental data were fitted by calculating and analyzing with Dotmatics data analysis software.

[2] = target: T2, EGFR L858R (BaF3-L858R cells) (Homo sapiens, UniProt P00533, L858R); assay: Cell degradation of EGFR, HTRF assay, BaF3-L858R cells; settings: 16 h treatment; for DC50: EGFR degradation; for Dmax: maximum percentage of degradation
T2 construct: host or cells: BaF3
In short: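 BaF3-L858R cells treated 16 h at 37° C, 5% CO2 with compound (top 10 uM final, 5-fold, 8 doses, 0.1% DMSO). DC50 from four-parameter fit; Dmax is maximum percent degradation.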

[3] = target: p-EGFR Del19/C797S (H1975-clone #23 cells) (Homo sapiens, UniProt P00533); assay: Cell p-EGFR inhibition assay, HTRF, H1975-clone#23 (DEL19/C797S) cells; settings: 16 h treatment; for Imax (%): maximum percentage of pEGFR inhibition; for IC50: pEGFR inhibition
Procedure: The EGFR over-expressed cells then underwent knockout, in which the EGFR targeting sgRNA was designed to only target the endogenous EGFR copies and preserve the exogenous EGFR copies. Followed by the knockout, the edited H1975 cells were seeded in 96 well plates at the concentration of 1 cell/well, cultured for about 2 weeks to allow single clones formation. The formed clones were screened by DNA sequencing and whole exon sequencing analysis for the desired edition.
as §1, §2, §3, §4, §5, §6

[4] = target: T3, EGFR-L858R/C797S (H1975-clone #8 cells) (Homo sapiens, UniProt P00533, C797S/L858R); assay: Cell degradation of EGFR, HTRF assay, H1975-clone#8 (L858R/C797S) cells; settings: 16 h treatment; for DC50: EGFR degradation; for Dmax: maximum percentage of degradation
T3 construct: expressed in transfected cells; host or cells: H1975 (endogenous EGFR knocked out, clone #8)

Row | Imax (%) [1] [%] | IC50 [1] [nM] | DC50 [2] [nM] | Dmax [2] [%] | Imax (%) [3] [%] | IC50 [3] [nM] | DC50 [4] [nM] | Dmax [4] [%] | SMILES
1 | 103 | 2.8 | 0.94 | 88.7 | 101.5 | 0.3 | 0.87 | 78.6 | COC[C@H]1CN(c2ccc3c(c2)N2C[C@@H]4CC[C@H](COc5c(cnn5C)-c5cc(cc(C)n5)C(=O)/N=C/2N3)C4)CCN1C1CCN(c2ccc(C3CCC(=O)NC3=O)nc2C)CC1 (stereo partly drawn) [Example 65, 3-(5-(4-((R)-4-((7^1R,7^3S,E)-1^1,2^6-dimethyl-3-oxo-5^2,5^3-dihydro-1^1H,5^1H-9-oxa-4-aza-5(2,1)-benzo[d]imidazola-2(2,4)-pyridina-1(4,5)-pyrazola-7(1,3)-cyclopentanacyclononaphane-5^6-yl)-2-(methoxymethyl)piperazin-1-yl)piperidin-1-yl)-6-methylpyridin-2-yl)piperidine-2,6-dione]
2 | 99.9 | 5.7 | 3.2 | 89.3 | 100.1 | 1.8 | 5.24 | 62.4 | COC[C@@H]1CN(c2ccc3c(c2)N2C[C@@H]4CC[C@H](COc5c(cnn5C)-c5cc(cc(C)n5)C(=O)/N=C/2N3)C4)CCN1CC1CN(c2ccc3c(c2)C(=O)N(C2CCC(=O)NC2=O)C3=O)C1 (stereo partly drawn) [Example 69, 5-(3-(((S)-4-((7^1R,7^3S,E)-1^1,2^6-dimethyl-3-oxo-5^2,5^3-dihydro-1^1H,5^1H-9-oxa-4-aza-5(2,1)-benzo[d]imidazola-2(2,4)-pyridina-1(4,5)-pyrazola-7(1,3)-cyclopentanacyclononaphane-5^6-yl)-2-(methoxymethyl)piperazin-1-yl)methyl)azetidin-1-yl)-2-(2,6-dioxopiperidin-3-yl)isoindoline-1,3-dione]
3 | 102.1 | 11 | 3.78 | 87.7 | 99.2 | 1.4 | 4.11 | 73.5 | COC[C@@H]1CN(c2ccc3c(c2)N2CC4CC[C@H](COc5c(cnn5C)-c5cc(cc(C)n5)C(=O)/N=C/2N3)C4)CCN1C1CCN(c2cc(F)c(C3CCC(=O)NC3=O)nc2C)CC1 (stereo partly drawn) [Example 70, 3-(5-(4-((S)-4-((7^1R,7^3S,E)-1^1,2^6-dimethyl-3-oxo-5^2,5^3-dihydro-1^1H,5^1H-9-oxa-4-aza-5(2,1)-benzo[d]imidazola-2(2,4)-pyridina-1(4,5)-pyrazola-7(1,3)-cyclopentanacyclononaphane-5^6-yl)-2-(methoxymethyl)piperazin-1-yl)piperidin-1-yl)-3-fluoro-6-methylpyridin-2-yl)piperidine-2,6-dione]
4 | 99.7 | 6.4 | 3.63 | 84.6 | 99.8 | 1.1 | 3.3 | 80.2 | COC[C@H]1CN(c2ccc3c(c2)N2CC4CC[C@H](COc5c(cnn5C)-c5cc(cc(C)n5)C(=O)/N=C/2N3)C4)CCN1C1CCN(c2cc(F)c(C3CCC(=O)NC3=O)nc2C)CC1 (stereo partly drawn) [Example 71, 3-(5-(4-((R)-4-((7^1R,7^3S,E)-1^1,2^6-dimethyl-3-oxo-5^2,5^3-dihydro-1^1H,5^1H-9-oxa-4-aza-5(2,1)-benzo[d]imidazola-2(2,4)-pyridina-1(4,5)-pyrazola-7(1,3)-cyclopentanacyclononaphane-5^6-yl)-2-(methoxymethyl)piperazin-1-yl)piperidin-1-yl)-3-fluoro-6-methylpyridin-2-yl)piperidine-2,6-dione]
5 | 92.8 | 3.2 | 0.4 | 91.6 | 101.7 | 0.6 | 0.64 | 76.6 | Cc1cc2cc(n1)-c1c(C)nn(C)c1OC[C@H]1CCC(C1)CN1/C(=N/C2=O)Nc2ccc(N3CCN(C4CCN(c5ccc(C6CCC(=O)NC6=O)nc5C)CC4)CC3)cc21 (stereo partly drawn) [Example 72, 3-(6-methyl-5-(4-(4-((7^1R,7^3S,E)-1^1,1^3,2^6-trimethyl-3-oxo-5^2,5^3-dihydro-1^1H,5^1H-9-oxa-4-aza-5(2,1)-benzo[d]imidazola-2(2,4)-pyridina-1(4,5)-pyrazola-7(1,3)-cyclopentanacyclononaphane-5^6-yl)piperazin-1-yl)piperidin-1-yl)pyridin-2-yl)piperidine-2,6-dione]
6 | 93.5 | 10.2 | 2.02 | 87.2 | 101.1 | 1 | 2.24 | 78.4 | COC[C@@H]1CN(c2ccc3c(c2)N2CC4CC[C@H](COc5c(cnn5C)-c5cc(cc(C)n5)C(=O)/N=C/2N3)C4)CCN1C1CCN(c2ccc(C3CCC(=O)NC3=O)nc2C)CC1 (stereo partly drawn) [Example 73, 3-(5-(4-((S)-4-((7^1R,7^3S,E)-1^1,2^6-dimethyl-3-oxo-5^2,5^3-dihydro-1^1H,5^1H-9-oxa-4-aza-5(2,1)-benzo[d]imidazola-2(2,4)-pyridina-1(4,5)-pyrazola-7(1,3)-cyclopentanacyclononaphane-5^6-yl)-2-(methoxymethyl)piperazin-1-yl)piperidin-1-yl)-6-methylpyridin-2-yl)piperidine-2,6-dione]
7 | 93.3 | 3.2 | 0.99 | 90.4 | 101.2 | 1.7 | 1 | 86.2 | Cc1cc2cc(n1)-c1c(C)nn(C)c1OC[C@H]1CCC(C1)CN1/C(=N/C2=O)Nc2ccc(N3CCN(C4CCN(c5cc(F)c([C@H]6CCC(=O)NC6=O)c(F)c5)CC4)CC3)cc21 [Example 74, (R)-3-(2,6-difluoro-4-(4-(4-((7^1R,7^3S,E)-1^1,1^3,2^6-trimethyl-3-oxo-5^2,5^3-dihydro-1^1H,5^1H-9-oxa-4-aza-5(2,1)-benzo[d]imidazola-2(2,4)-pyridina-1(4,5)-pyrazola-7(1,3)-cyclopentanacyclononaphane-5^6-yl)piperazin-1-yl)piperidin-1-yl)phenyl)piperidine-2,6-dione]
8 | 92.6 | 7.9 | 1.6 | 82.7 | 101.1 | 0.6 | 0.97 | 61.3 | Cc1cc2cc(n1)-c1cnn(C)c1OC[C@H]1CCC(C1)CN1/C(=N/C2=O)Nc2ccc(N3CCN(C4CCN(c5cc(F)c([C@H]6CCC(=O)NC6=O)c(F)c5)CC4)[C@@H](CO)C3)cc21 [Example 75, (R)-3-(4-(4-((R)-4-((7^1R,7^3S,E)-1^1,2^6-dimethyl-3-oxo-5^2,5^3-dihydro-1^1H,5^1H-9-oxa-4-aza-5(2,1)-benzo[d]imidazola-2(2,4)-pyridina-1(4,5)-pyrazola-7(1,3)-cyclopentanacyclononaphane-5^6-yl)-2-(hydroxymethyl)piperazin-1-yl)piperidin-1-yl)-2,6-difluorophenyl)piperidine-2,6-dione]
9 | 94.9 | 7.8 | 3.23 | 84.8 | 101 | 0.7 | 3.87 | 79.4 | Cc1cc2cc(n1)-c1cnn(C)c1OC[C@H]1CCC(C1)CN1/C(=N/C2=O)Nc2ccc(N3CCN([C@H]4CCN(c5ccc(C6CCC(=O)NC6=O)nc5C)C[C@@H]4F)CC3)cc21 (stereo partly drawn) [Example 76, 3-(5-((3S,4S)-4-(4-((7^1R,7^3S,E)-1^1,2^6-dimethyl-3-oxo-5^2,5^3-dihydro-1^1H,5^1H-9-oxa-4-aza-5(2,1)-benzo[d]imidazola-2(2,4)-pyridina-1(4,5)-pyrazola-7(1,3)-cyclopentanacyclononaphane-5^6-yl)piperazin-1-yl)-3-fluoropiperidin-1-yl)-6-methylpyridin-2-yl)piperidine-2,6-dione]
